Columns and labels:
Format in all cases: cell-based
[1] = system: Human Immunodeficiency Virus Type 1; experiment: Anti-HIV activity: protection of MT4 T-lymphoblastoid cells (IFA)
Method: (§1) Activity against the Human immunodeficiency Virus (HIV) was also determined and, more specifically, the compounds antiviral effectiveness in protecting the T-lymphoblastoid cells MT4 from being infected by the virus-containing liquid of HTHIV27 cultures. The cells infected by the virus were analyzed according to the following methods: (1) An indirect immunofluorescence (IFA) with a polyclonal anti-serum was received from an HIV Infected human (the antibody titer in the IFA was 1:1000000) and, (2) A competitive IFA was utilized with monoclonal antibodies (MonAb) to p24 HIV and a polyclonal substrate. A solution of 1:540 was used in the tests. Azidothymidin (AZT) was used as the control.
The results documented in the table shown in TABLE 6 evidence that the compounds tested inhibit the reproduction of the Human Immunodeficiency Virus Type 1.

[2] = system: Human Immunodeficiency Virus; experiment: Anti-HIV activity alone and in combination with azidothymidin in MT4 cells
Method: as §1, with “[…] The methods utilized to analyze the compounds effectiveness were the same” for “Azidothymidin (AZT) was used”, “foregoing methods.” for “control.”

[3] = system: Chlamydia trachomatis D323; experiment: Protection of cell culture from Chlamydia trachomatis (immunofluorescence, cytoplasmatic inclusions)
Excerpt: The antiviral activity of the claimed compounds were also all tested against the Chlemydia trachomatis. The effects of the claimed compounds on the Chlamydia trachomatis are charted in TABLE 4. A relative strain of Chlamydia trachomatis D323 was used to test the claimed compounds. The strain, derived from a patient with Chlamydia urethritis, comprised a morphology and a physiological activity characteristic of and representative of that type. An infection dose of Chlamydia having a concentration of 1/10^6 cells/ml was introduced into a cell culture. Immunofluorescence (MicroTrack Chlamydia trachomatis Direct Specimen Test) was conducted to determine the significance of the chlamydial cytoplasmatic inclusions (CPI). A CylaMonoScreen was conducted to obtain the chlamydia antigens. The monolayer state and the number of cells with CPI were compared to the control to determine the effects the claimed compounds have on the chlamydia. The number of unchanged cells in 100 visual fields were counted utilizing a special net on a microscopic eyepiece.

[4] = system: Influenza virus A; settings: Influenza virus A; 48 hours at 33-34 C; ineffective when IN less than 1.0
[5] = system: Influenza virus B; settings: Influenza virus B; 72 hours at 33-34 C; ineffective when IN less than 1.0

Structure (SMILES) | Level of inhibition of virus reproduction ([1]; 5 mg/l) | Level of inhibition of virus reproduction ([1]; 50 mg/l) | Level of inhibition of virus reproduction ([1]; 100 mg/l) | Level of inhibition of virus reproduction ([2]; 0.05 mg/l) | Level of inhibition of virus reproduction ([2]; 5.0 mg/l) | Percentage of cells' defense from C. trachomatis ([3]; compound 30 mg/l) | Percentage of cells' defense from C. trachomatis ([3]; compound 100 mg/l) | Index of neutralization [4] | Index of neutralization [5] | inhibition at 5 µg/mL ([1]; Human immunodeficiency virus 1, 5 mg/l, read-out: Level of inhibition of virus reproduction) | inhibition at 50 µg/mL ([1]; Human immunodeficiency virus 1, 50 mg/l, read-out: Level of inhibition of virus reproduction) | inhibition at 100 µg/mL ([1]; Human immunodeficiency virus 1, 100 mg/l, read-out: Level of inhibition of virus reproduction) | inhibition at 0.5 µg/mL ([2]; Human immunodeficiency virus 1, 0.5 mg/l, read-out: Level of inhibition of virus reproduction) | inhibition at 5 µg/mL ([2]; Human immunodeficiency virus 1, 5.0 mg/l, read-out: Level of inhibition of virus reproduction)
Cc1cn([C@H]2C[C@H](N=[N+]=[N-])[C@@H](CO)O2)c(=O)[nH]c1=O [AZT, Azidothymidin, reference compound] | 100% | 100% | 100% | 50% | 100% | – | – | – | – | – | – | – | – | –
O=[N+]([O-])c1ccc(C2c3c(O)nc(=S)[nH]c3Oc3[nH]c(=S)nc(Cl)c32)cc1 (centres unmarked) [Ib, 4-chlorine-6-hydroxi-5-(4-nitrophenyl)-5,9-dihydro-1H-pyrano[2,3-d: 6,5-d′]dipyrimidine-2,8-dition] | – | – | – | – | – | 60% | 80% | 0.5 | 0.5 | 70% | 90% | 100% | 20% | 70%

— patent publication US7557116B2, “Substance which exhibits antiviral and antibacterial activity and is based on derivatives of 2,8-dithioxo-1H-pyrano[2,3d 6,5-d′]dipyrimidyne and 10-aza-analogue thereof” (priority 2003, dated 2009)
